{
  "source": "patent US20180256914A1",
  "about": "“COMPOSITIONS AND METHODS FOR THE TREATMENT OF MUCOSITIS ASSOCIATED WITH TREATMENT-INDUCED NEUTROPENIA” (KLOX TECHNOLOGIES INC., priority 2015, published 2018)",
  "key": {"[1]": {"assay": "Neutralisation by Trolox of ROS produced by gel containing 12% urea peroxide", "settings": "2 mM Trolox; FIG. 2"}, "P. aeruginosa": {"test_system": "P. aeruginosa", "type": "cell-based, Pseudomonas aeruginosa", "settings": "Trolox at concentrations above 2 mM; data not shown"}},
  "data": [
    {"smiles": "Cc1c(C)c2c(c(C)c1O)CCC(C)(C(=O)O)O2", "note": "(centres unmarked) [Trolox]", "values": [
      {"measurement": "neutralization of ROS produced by the gel containing 12% urea peroxide", "setting": "[1]", "result": "neutralize the ROS"},
      {"measurement": "cytotoxicity to P. aeruginosa", "setting": "P. aeruginosa", "result": "not to be cytotoxic"}
    ]}
  ]
}
